Tests used:
lambsquarters [1] = test: Test Example 4: herbicidal effect by soil treatment (Table 19, symbol O); format: in vivo, lambsquarters (Chenopodium album); conditions: amount of applied herbicide 320 g/ha
Outline: (§1)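 Step 1: sow seeds in sterilized diluvial soil, cover ~1.5 cm. Step 2: spray diluted emulsion onto soil surface at predetermined rate. Step 3: greenhouse, 25–30° C, three weeks. Step 4: grade effect on each plant by earlier criteria.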

barnyard grass [2] = test: Test Example 4: herbicidal effect by soil treatment (Table 19, symbol H); format: in vivo, barnyard grass (Echinochloa crus-galli); conditions: amount of applied herbicide 320 g/ha
Outline: as §1

redroot pigweed [3] = test: Test Example 5: herbicidal effect by foliage application, plastic box (Table 20, symbol N); format: in vivo, redroot pigweed (Amaranthus retroflexus); conditions: foliage application after 14-day growth, evaluated three weeks after application
Outline: (§2)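 Foliar spray test: emulsion formulation diluted in water to a set application rate, sprayed onto 14-day-old plants raised in diluvial soil at 25° C to 30° C under glass. Both herbicidal effect and crop effect rated visually three weeks later.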

chickweed [4] = test: Test Example 4: herbicidal effect by soil treatment (Table 19, symbol P); format: in vivo, common chickweed (Stellaria media); conditions: amount of applied herbicide 320 g/ha
Outline: as §1

redroot pigweed [5] = test: Test Example 4: herbicidal effect by soil treatment (Table 19, symbol N); format: in vivo, redroot pigweed (Amaranthus retroflexus); conditions: amount of applied herbicide 320 g/ha
Outline: as §1

windgrass [6] = test: Test Example 5: herbicidal effect by foliage application, plastic box (Table 20, symbol L); format: in vivo, windgrass (Apera spica-venti); conditions: foliage application after 14-day growth, evaluated three weeks after application
Outline: as §2

chickweed [7] = test: Test Example 5: herbicidal effect by foliage application, plastic box (Table 20, symbol P); format: in vivo, common chickweed (Stellaria media); conditions: foliage application after 14-day growth, evaluated three weeks after application
Outline: as §2

persian speedwell [8] = test: Test Example 5: herbicidal effect by foliage application, plastic box (Table 20, symbol R); format: in vivo, Persian speedwell (Veronica persica); conditions: foliage application after 14-day growth, evaluated three weeks after application
Outline: as §2

lambsquarters [9] = test: Test Example 5: herbicidal effect by foliage application, plastic box (Table 20, symbol O); format: in vivo, lambsquarters (Chenopodium album); conditions: foliage application after 14-day growth, evaluated three weeks after application
Outline: as §2

Italian ryegrass [10] = test: Test Example 5: herbicidal effect by foliage application, plastic box (Table 20, symbol K); format: in vivo, Italian ryegrass (Lolium multiflorum); conditions: foliage application after 14-day growth, evaluated three weeks after application
Outline: as §2

southern crabgrass [11] = test: Test Example 4: herbicidal effect by soil treatment (Table 19, symbol F); format: in vivo, southern crabgrass (Digitaria ciliaris); conditions: amount of applied herbicide 320 g/ha
Outline: as §1

Italian ryegrass [12] = test: Test Example 4: herbicidal effect by soil treatment (Table 19, symbol K); format: in vivo, Italian ryegrass (Lolium multiflorum); conditions: amount of applied herbicide 320 g/ha
Outline: as §1

blackgrass [13] = test: Test Example 4: herbicidal effect by soil treatment (Table 19, symbol J); format: in vivo, blackgrass (Alopecurus myosuroides); conditions: amount of applied herbicide 320 g/ha
Outline: as §1

blackgrass [14] = test: Test Example 5: herbicidal effect by foliage application, plastic box (Table 20, symbol J); format: in vivo, blackgrass (Alopecurus myosuroides); conditions: foliage application after 14-day growth, evaluated three weeks after application
Outline: as §2

green foxtail [15] = test: Test Example 5: herbicidal effect by foliage application, plastic box (Table 20, symbol G); format: in vivo, green foxtail (Setaria viridis); conditions: foliage application after 14-day growth, evaluated three weeks after application
Outline: as §2

velvetleaf [16] = test: Test Example 5: herbicidal effect by foliage application, plastic box (Table 20, symbol M); format: in vivo, velvetleaf (Abutilon theophrasti); conditions: foliage application after 14-day growth, evaluated three weeks after application
Outline: as §2

southern crabgrass [17] = test: Test Example 5: herbicidal effect by foliage application, plastic box (Table 20, symbol F); format: in vivo, southern crabgrass (Digitaria ciliaris); conditions: foliage application after 14-day growth, evaluated three weeks after application
Outline: as §2

green foxtail [18] = test: Test Example 4: herbicidal effect by soil treatment (Table 19, symbol G); format: in vivo, green foxtail (Setaria viridis); conditions: amount of applied herbicide 320 g/ha
Outline: as §1

windgrass [19] = test: Test Example 4: herbicidal effect by soil treatment (Table 19, symbol L); format: in vivo, windgrass (Apera spica-venti); conditions: amount of applied herbicide 320 g/ha
Outline: as §1

wild oat [20] = test: Test Example 4: herbicidal effect by soil treatment (Table 19, symbol I); format: in vivo, wild oat (Avena fatua); conditions: amount of applied herbicide 320 g/ha
Outline: as §1

velvetleaf [21] = test: Test Example 4: herbicidal effect by soil treatment (Table 19, symbol M); format: in vivo, velvetleaf (Abutilon theophrasti); conditions: amount of applied herbicide 320 g/ha
Outline: as §1

persian speedwell [22] = test: Test Example 4: herbicidal effect by soil treatment (Table 19, symbol R); format: in vivo, Persian speedwell (Veronica persica); conditions: amount of applied herbicide 320 g/ha
Outline: as §1

rice flat sedge = test: Test Example 3: herbicidal effect by foliage application, Wagner pot (Table 18, symbol E); format: in vivo, rice flat sedge (Cyperus iria); conditions: 320 g/ha
Outline: (§3)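 Plants were sown in alluvial soil held under 0.1–0.5 cm standing water and grown 14 days in a greenhouse at 25–30 °C. An emulsifiable formulation, water-diluted to the set dose, was then sprayed onto the foliage, and effects were scored three weeks later using previously defined criteria.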

wild oat [23] = test: Test Example 5: herbicidal effect by foliage application, plastic box (Table 20, symbol I); format: in vivo, wild oat (Avena fatua); conditions: foliage application after 14-day growth, evaluated three weeks after application
Outline: as §2

barnyard grass [24] = test: Test Example 3: herbicidal effect by foliage application, Wagner pot (Table 18, symbol H); format: in vivo, barnyard grass (Echinochloa crus-galli); conditions: 320 g/ha
Outline: as §3

barnyard grass [25] = test: Test Example 5: herbicidal effect by foliage application, plastic box (Table 20, symbol H); format: in vivo, barnyard grass (Echinochloa crus-galli); conditions: foliage application after 14-day growth, evaluated three weeks after application
Outline: as §2

Chinese sprangletop = test: Test Example 3: herbicidal effect by foliage application, Wagner pot (Table 18, symbol D); format: in vivo, chinese sprangletop (Leptochloa chinensis); conditions: 320 g/ha
Outline: as §3

[26] = amount of applied herbicide 320 g/ha

Structure (SMILES)	Herbicidal effect by soil treatment, O: lambsquarters (lambsquarters [1])	Herbicidal effect by soil treatment, H: barnyard grass (barnyard grass [2])	Herbicidal effect by soil treatment, P: chickweed (chickweed [4])	Herbicidal effect by soil treatment, N: redroot pigweed (redroot pigweed [5])	Herbicidal effect by soil treatment, F: southern crabgrass (southern crabgrass [11])	Herbicidal effect by soil treatment, K: Italian ryegrass (Italian ryegrass [12])	Herbicidal effect by soil treatment, J: blackgrass (blackgrass [13])	Herbicidal effect by soil treatment, G: green foxtail (green foxtail [18])	Herbicidal effect by soil treatment, L: windgrass (windgrass [19])	Herbicidal effect by soil treatment, I: wild oat (wild oat [20])	Herbicidal effect by soil treatment, M: velvetleaf (velvetleaf [21])	Herbicidal effect by soil treatment, R: persian speedwell (persian speedwell [22])	herbicidal effect on rice flat sedge (E) (rice flat sedge)	herbicidal effect on barnyard grass (H) (barnyard grass [24])	herbicidal effect on Chinese sprangletop (D) (Chinese sprangletop)	further results
CCCC(=O)Oc1c(C)nn(C)c(=O)c1-c1c(-c2ccccc2F)sc2c(Cl)cccc12 [4-059]	0 (Herbicidal rate of 5% or less (almost no effect))	0 (Herbicidal rate of 5% or less (almost no effect))	4 (Herbicidal rate of 70% or more and less than 90%)	0 (Herbicidal rate of 5% or less (almost no effect))	0 (Herbicidal rate of 5% or less (almost no effect))	0 (Herbicidal rate of 5% or less (almost no effect))	0 (Herbicidal rate of 5% or less (almost no effect))	0 (Herbicidal rate of 5% or less (almost no effect))	0 (Herbicidal rate of 5% or less (almost no effect))	0 (Herbicidal rate of 5% or less (almost no effect))	0 (Herbicidal rate of 5% or less (almost no effect))	4 (Herbicidal rate of 70% or more and less than 90%)	4 (Herbicidal rate of 70% or more and less than 90%)	4 (Herbicidal rate of 70% or more and less than 90%)	4 (Herbicidal rate of 70% or more and less than 90%)	herbicidal effect on N: redroot pigweed (evaluation grade 0-5) (redroot pigweed [3]; 320 g/ha): 3 (Herbicidal rate of 40% or more and less than 70%); herbicidal effect on L: windgrass (evaluation grade 0-5) (windgrass [6]; 320 g/ha): 0 (Herbicidal rate of 5% or less (almost no effect)); herbicidal effect on P: chickweed (evaluation grade 0-5) (chickweed [7]; 320 g/ha): 5 (Herbicidal rate of 90% or more (almost completely withered)); herbicidal effect on R: persian speedwell (evaluation grade 0-5) (persian speedwell [8]; 320 g/ha): 4 (Herbicidal rate of 70% or more and less than 90%); herbicidal effect on O: lambsquarters (evaluation grade 0-5) (lambsquarters [9]; 320 g/ha): 2 (Herbicidal rate of 20% or more and less than 40%); herbicidal effect on K: Italian ryegrass (evaluation grade 0-5) (Italian ryegrass [10]; 320 g/ha): 0 (Herbicidal rate of 5% or less (almost no effect)); herbicidal effect on J: blackgrass (evaluation grade 0-5) (blackgrass [14]; 320 g/ha): 0 (Herbicidal rate of 5% or less (almost no effect)); herbicidal effect on G: green foxtail (evaluation grade 0-5) (green foxtail [15]; 320 g/ha): 0 (Herbicidal rate of 5% or less (almost no effect)); herbicidal effect on M: velvetleaf (evaluation grade 0-5) (velvetleaf [16]; 320 g/ha): 3 (Herbicidal rate of 40% or more and less than 70%); herbicidal effect on F: southern crabgrass (evaluation grade 0-5) (southern crabgrass [17]; 320 g/ha): 0 (Herbicidal rate of 5% or less (almost no effect)); herbicidal effect on I: wild oat (evaluation grade 0-5) (wild oat [23]; 320 g/ha): 1 (Herbicidal rate of 5% or more and less than 20%); herbicidal effect on H: barnyard grass (evaluation grade 0-5) (barnyard grass [25]; 320 g/ha): 0 (Herbicidal rate of 5% or less (almost no effect))
CSc1ccc(-c2sc3c(Cl)cccc3c2-c2c(O)c(C)nn(C)c2=O)cc1 [4-088]	4 (Herbicidal rate of 70% or more and less than 90%)	0 (Herbicidal rate of 5% or less (almost no effect))	0 (Herbicidal rate of 5% or less (almost no effect))	5 (Herbicidal rate of 90% or more (almost completely withered))	0 (Herbicidal rate of 5% or less (almost no effect))	3 (Herbicidal rate of 40% or more and less than 70%)	0 (Herbicidal rate of 5% or less (almost no effect))	0 (Herbicidal rate of 5% or less (almost no effect))	0 (Herbicidal rate of 5% or less (almost no effect))	0 (Herbicidal rate of 5% or less (almost no effect))	0 (Herbicidal rate of 5% or less (almost no effect))	3 (Herbicidal rate of 40% or more and less than 70%)	5 (Herbicidal rate of 90% or more (almost completely withered))	5 (Herbicidal rate of 90% or more (almost completely withered))	3 (Herbicidal rate of 40% or more and less than 70%)	Herbicidal effect by foliage application, N: redroot pigweed (redroot pigweed [3]; [26]): 5 (Herbicidal rate of 90% or more (almost completely withered)); Herbicidal effect by foliage application, L: windgrass (windgrass [6]; [26]): 5 (Herbicidal rate of 90% or more (almost completely withered)); Herbicidal effect by foliage application, P: chickweed (chickweed [7]; [26]): 5 (Herbicidal rate of 90% or more (almost completely withered)); Herbicidal effect by foliage application, R: persian speedwell (persian speedwell [8]; [26]): 5 (Herbicidal rate of 90% or more (almost completely withered)); Herbicidal effect by foliage application, O: lambsquarters (lambsquarters [9]; [26]): 5 (Herbicidal rate of 90% or more (almost completely withered)); Herbicidal effect by foliage application, K: Italian ryegrass (Italian ryegrass [10]; [26]): 4 (Herbicidal rate of 70% or more and less than 90%); Herbicidal effect by foliage application, J: blackgrass (blackgrass [14]; [26]): 2 (Herbicidal rate of 20% or more and less than 40%); Herbicidal effect by foliage application, G: green foxtail (green foxtail [15]; [26]): 2 (Herbicidal rate of 20% or more and less than 40%); Herbicidal effect by foliage application, M: velvetleaf (velvetleaf [16]; [26]): 5 (Herbicidal rate of 90% or more (almost completely withered)); Herbicidal effect by foliage application, F: southern crabgrass (southern crabgrass [17]; [26]): 0 (Herbicidal rate of 5% or less (almost no effect)); Herbicidal effect by foliage application, I: wild oat (wild oat [23]; [26]): 4 (Herbicidal rate of 70% or more and less than 90%); Herbicidal effect by foliage application, H: barnyard grass (barnyard grass [25]; [26]): 3 (Herbicidal rate of 40% or more and less than 70%)

Source: patent US20230085307A1, “PYRIDAZINONE COMPOUND AND HERBICIDE” (NISSAN CHEMICAL CORPORATION, priority 2019, published 2023)
